# Test results taken from US20090005417A1, “Substituted Indazolyl Sulfonamide and 2,3-Dihydro-Indolyl Sulfonamide Compounds, their Preparation and Use in Medicaments” (LABORATORIOS DEL DR. ESTEVE S.A., priority 2004, published 2009).
# Target: T1, 5HT6-human recombinant receptor (Homo sapiens, UniProt P50406)
# T1 construct: purchased Receptor Biology; host or cells: HEK-293 cell membranes
# Experiment: Binding to serotonin receptor 5-HT6 ([3H]-LSD radioligand)
# Settings: membranes of HEK-293 cells expressing the receptor; [3H]-LSD 2.7 nM; 60 min at 37° C.
# Description: Cell membranes of HEK-293 cells expressing the 5HT6-human recombinant receptor were supplied by Receptor Biology. In said membranes the receptor concentration is 2.18 pmol/mg protein and the protein concentration is 9.17 mg/ml. The experimental protocol follows the method of B. L. Roth et al. [B. L. Roth, S. C. Craigo, M. S. Choudhary, A. Uluer, F. J. Monsma, Y. Shen, H. Y. Meltzer, D. R. Sibley: Binding of Typical and Atypical Antipsychotic Agents to 5-Hydroxytryptamine-6 and Hydroxytryptamine-7 Receptors. The Journal of Pharmacology and Experimental Therapeutics, 1994, 268, 1403] with the following slight changes. The respective part of the literature description is hereby incorporated by reference and forms part of the disclosure.
# The commercial membrane is diluted (1:40 dilution) with the binding buffer: 50 mM Tris-HCl, 10 mM MgCl2, 0.5 mM EDTA (pH 7.4). The radioligand used is [^3H]-LSD at a concentration of 2.7 nM with a final volume of 200 μl. Incubation is initiated by adding 100 μl of membrane suspension, (≈22.9 μg membrane protein), and is prolonged for 60 minutes at a temperature of 37° C. The incubation is ended by fast filtration in a Brandel Cell Harvester through fiber glass filters made by Schleicher & Schuell GF 3362 pretreated with a solution of polyethylenimine at 0.5%. The filters are washed three times with three milliliters of buffer Tris-HCl 50 mM pH 7.4. The filters are transferred to flasks and 5 ml of Ecoscint H liquid scintillation cocktail are added to each flask. The flasks are allowed to reach equilibrium for several hours before counting with a Wallac Winspectral 1414 scintillation counter. Non-specific binding is determined in the presence of 100 μM of serotonin. Tests were made in triplicate. The inhibition constants (Ki, nM) were calculated by non-linear regression analysis using the program EBDA/LIGAND described in Munson and Rodbard, Analytical Biochemistry, 1980, 107, 220, the respective part of which is hereby incorporated by reference and forms part of the disclosure.
# The binding of the substituted indazolyl sulfonamide or 2,3-dihydro-indolyl sulfonamide compounds to the 5-HT6 receptor was determined as described above.
# T1 sequence (P50406 whole entry): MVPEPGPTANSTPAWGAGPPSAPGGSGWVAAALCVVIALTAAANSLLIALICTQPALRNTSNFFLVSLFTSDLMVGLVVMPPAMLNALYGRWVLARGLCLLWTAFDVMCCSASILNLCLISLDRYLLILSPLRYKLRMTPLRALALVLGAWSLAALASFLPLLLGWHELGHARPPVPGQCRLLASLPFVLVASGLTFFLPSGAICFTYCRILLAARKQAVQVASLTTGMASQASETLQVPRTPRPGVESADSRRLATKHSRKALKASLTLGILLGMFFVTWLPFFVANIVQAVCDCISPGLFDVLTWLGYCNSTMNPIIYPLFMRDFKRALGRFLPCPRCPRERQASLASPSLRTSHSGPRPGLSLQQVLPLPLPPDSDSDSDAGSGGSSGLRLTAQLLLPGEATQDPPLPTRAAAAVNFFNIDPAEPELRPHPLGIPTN
row,Ki [nM],SMILES
1,72.6,"CN(C)CCn1ncc2ccc(NS(=O)(=O)c3ccc4ccccc4c3)cc21 [Example 1, N-(1-(2-(dimethylamino)ethyl)-1H-indazol-6-yl)napthalene-2-sulfonamide]"
2,16.4,"Cc1c(S(=O)(=O)Nc2ccc3cnn(CCN(C)C)c3c2)sc2ccc(Cl)cc12 [Example 2, 5-chloro-N-(1-(2-(dimethylamino)ethyl)-1H-indazol-6-yl)-3-methylbenzo[b]thiophene-2-sulfonamide]"
3,121,"Cc1c(S(=O)(=O)Nc2ccc3[nH]nc(C4CCN(C)CC4)c3c2)sc2ccc(Cl)cc12 [Example 4, 5-chloro-3-methyl-benzo[b]thiophene-2-sulfonic acid [3-(1-methyl-piperidin-4-yl)-1H-indazol-5-yl]-amide]"

row,SMILES,Ki [nM]
1,CN(C)CCN1CCc2ccc(NS(=O)(=O)c3c(Cl)nc4sccn34)cc21 [Example 9],15.8
